The source of these data is patent US20020164617A1, “Affinity selection-based screening of hydrophobic proteins” (NeoGenesis Pharmaceuticals, Inc., priority 2000, published 2002).

One experiment has as its target T1, m2 mAChR (Sus scrofa, UniProt P06199).
T1 construct: made in house
T1 sequence (P06199 1-466): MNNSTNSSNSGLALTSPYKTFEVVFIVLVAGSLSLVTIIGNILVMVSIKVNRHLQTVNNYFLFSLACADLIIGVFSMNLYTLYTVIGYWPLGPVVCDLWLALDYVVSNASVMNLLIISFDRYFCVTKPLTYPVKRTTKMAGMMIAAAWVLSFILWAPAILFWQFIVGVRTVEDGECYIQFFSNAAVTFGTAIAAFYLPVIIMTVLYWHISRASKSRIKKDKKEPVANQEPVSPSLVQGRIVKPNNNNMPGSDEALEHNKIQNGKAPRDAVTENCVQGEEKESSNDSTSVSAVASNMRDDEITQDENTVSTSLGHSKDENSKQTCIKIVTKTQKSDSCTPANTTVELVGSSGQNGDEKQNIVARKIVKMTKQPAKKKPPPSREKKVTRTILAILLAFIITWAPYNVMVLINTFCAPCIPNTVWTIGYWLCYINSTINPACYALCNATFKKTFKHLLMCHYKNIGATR
Put plainly: 3H-NMS binding assay by the method of Rinken and Haga. The settings on record: m2 mAChR alone, without accessory protein; read-out: apparent Kd.

The target in experiment [1] is T2, m2 mAChR-G∀i1∃1(2-GDP complex (Sus scrofa, UniProt P06199)).
T2 construct: made in house
T2 sequence (P63096 whole entry partner, one chain of several): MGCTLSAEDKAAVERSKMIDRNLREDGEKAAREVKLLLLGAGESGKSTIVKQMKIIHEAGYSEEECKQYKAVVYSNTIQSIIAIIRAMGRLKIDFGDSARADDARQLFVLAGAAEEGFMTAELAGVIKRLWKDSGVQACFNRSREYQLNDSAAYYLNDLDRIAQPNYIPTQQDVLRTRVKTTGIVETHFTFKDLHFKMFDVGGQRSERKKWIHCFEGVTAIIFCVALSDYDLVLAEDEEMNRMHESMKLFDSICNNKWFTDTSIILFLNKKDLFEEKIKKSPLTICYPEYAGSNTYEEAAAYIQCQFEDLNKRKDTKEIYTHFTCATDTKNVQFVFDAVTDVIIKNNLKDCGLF
T2 sequence (P62873 whole entry partner, one chain of several): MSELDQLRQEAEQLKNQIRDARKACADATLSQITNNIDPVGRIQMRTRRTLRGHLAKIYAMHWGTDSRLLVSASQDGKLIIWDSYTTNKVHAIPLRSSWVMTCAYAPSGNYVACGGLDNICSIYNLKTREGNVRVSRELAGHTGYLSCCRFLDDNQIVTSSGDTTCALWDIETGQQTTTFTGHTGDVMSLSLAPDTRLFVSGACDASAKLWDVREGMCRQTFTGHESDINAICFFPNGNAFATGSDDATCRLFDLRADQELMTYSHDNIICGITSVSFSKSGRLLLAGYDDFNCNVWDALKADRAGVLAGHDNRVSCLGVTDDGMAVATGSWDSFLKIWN
T2 sequence (P59768 2-68 partner limits assumed, one chain of several): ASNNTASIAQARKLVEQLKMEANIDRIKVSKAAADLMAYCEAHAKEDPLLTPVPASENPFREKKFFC
The experiment is described as above.

`C[N+]1(C)[C@@H]2C[C@@H](OC(=O)[C@H](CO)c3ccccc3)C[C@H]1[C@@H]1O[C@@H]12` [3H-NMS, N-methylscapolamine]: the Kd on m2 mAChR was 0.17 nM; in experiment [1] (m2 mAChR with G protein heterotrimer-GDP as accessory protein), 432 nM. Moreover, in experiment [1] (with vs without G∀i1∃1(2-GDP complex)), the “enhancement of affinity of m2 mAChR in presence of accessory protein complex” value stood at 5 fold.
